{"source": "patent US20260137687A1", "about": "“GTPase INHIBITORS AND USES THEREOF” (The Regents of The University of California, priority 2022, published 2026)", "key": {"K-Ras G12V": {"biological_target": "K-Ras G12V (Homo sapiens, UniProt P01116, G12V)", "experiment": "Intact protein mass spectrometry, covalent modification", "type": "binding", "conditions": "extended incubation at pH 7.5; 50 μM, 16 h", "method": "(§1) Purified K-Ras variants (4 μM final) were incubated with compounds at 50 or 100 μM (1% v/v DMSO final) in 20 mM HEPES pH 7.5, 150 mM NaCl, 1 mM MgCl2 in a total volume of 150 μL. After the noted time, the samples were analyzed by intact protein LC/MS using a Waters Xevo G2-XS system equipped with an Acquity UPLC BEH C4 1.7 μm column. The mobile phase was a linear gradient of 5-95% acetonitrile/water+0.05% formic acid. The spectra were processed using QuantLynx, giving the ion counts observed for the most abundant species. For assays conducted under an alternate pH, the HEPES buffer was replaced with one of the following buffers (maintaining 150 mM NaCl and 1 mM MgCl2): 20 mM MES pH 6 or 20 mM Tris pH 9."}, "K-Ras(G12R)·GppNHp": {"biological_target": "T1, K-Ras(G12R)·GppNHp (Homo sapiens, UniProt P01116, C118S/C51S/C80L/G12R)", "T1 construct": "human K-Ras G12R Cyslight (G12R/C51S/C80L/C118S, aa 1-169); 6xHis tag + TEV cleavage site (N, cleaved yes); made in house; host or cells: E. coli BL21(DE3)", "experiment": "Intact protein mass spectrometry, covalent modification", "type": "binding", "conditions": "after 72 h; 50 μM", "method": "as §1"}, "K-Ras(G12R)·GDP [1]": {"biological_target": "T2, K-Ras(G12R)·GDP (Homo sapiens, UniProt P01116, G12R)", "T2 construct": "human K-Ras (G12R, aa 1-169); 6xHis tag + TEV cleavage site (N, cleaved yes); made in house; host or cells: E. coli BL21(DE3)", "experiment": "Intact protein mass spectrometry, covalent modification", "type": "binding", "conditions": "for reaction rate with K-Ras(G12R)·GDP: 50 μM", "method": "as §1"}, "K-Ras Q61K": {"biological_target": "K-Ras Q61K (Homo sapiens, UniProt P01116, Q61K)", "experiment": "Intact protein mass spectrometry, covalent modification", "type": "binding", "conditions": "extended incubation at pH 7.5; 50 μM, 16 h", "method": "as §1"}, "[2]": {"test_system": "BaF3/G12R cells (±IL-3), TCC-Pan-2 cells, and A375 cells", "experiment": "Cellular activity (phospho-ERK immunoblot, growth inhibition)", "type": "cell-based", "conditions": "at concentrations below 100 μM", "method": "When indicated, cells were treated with drugs at 40-60% confluency at a final DMSO concentration of 1%. At the end of treatment period, cells were placed on ice. Unless otherwise indicated, adherent cells were washed once with ice-cold PBS (1 mL), scraped with a spatula, and pelleted by centrifugation (500×g, 5 min). Suspension cells were pelleted by centrifugation (500×g, 5 min), washed with 1 mL ice-cold PBS, and pelleted again. Cells were lysed in RIPA buffer supplemented with protease and phosphatase inhibitors (cOmplete and phosSTOP, Roche) on ice for 10 min. Lysates were clarified by high-speed centrifugation (19,000×g, 10 min). Concentrations of lysates were determined with protein BCA assay (Thermo Fisher) and adjusted to 2 mg/mL with additional RIPA buffer (or Co-IP Lysis Buffer). Samples were mixed with 5×SDS Loading Dye and heated at 95° C. for 5 min.\nCells were seeded into 96-well white flat bottom plates (1,000 cells/well) (Corning) and incubated overnight. Cells were treated with the indicated compounds in a nine-point threefold dilution series (100 μL final volume) and incubated for 72 h. Cell viability was assessed using a commercial CellTiter-Glo (CTG) luminescence-based assay (Promega). […] Plates were placed on an orbital shaker for 30 min before recording luminescence using a Spark 20M (Tecan) plate reader."}, "K-Ras(G12R)·GDP [3]": {"biological_target": "T2, K-Ras(G12R)·GDP", "experiment": "Differential scanning fluorimetry", "type": "binding", "method": "The protein of interest was diluted with SEC Buffer [20 mM HEPES 7.5, 150 mM NaCl, 1 mM MgCl2] to 8 μM. This solution was dispensed into wells of a white 96-well PCR plate in triplicate (25 μL/well). Fluorescence was measured at 0.5° C. temperature intervals every 30 s from 25° C. to 95° C. on a Bio-Rad CFX96 qPCR system using the FRET setting. Each data set was normalized to the highest fluorescence and the normalized fluorescence reading was plotted against temperature in GraphPad Prism 8.0. Tm values were determined as the temperature(s) corresponding to the maximum(ma) of the first derivative of the curve."}, "K-Ras(G12R)": {"biological_target": "K-Ras(G12R) (Homo sapiens, UniProt P01116, G12R)", "experiment": "Lysate target engagement assay (anti-Ras immunoblot)", "type": "binding", "set-up": "pMSCV-Puro plasmids containing full length human KRAS genes (G12R); expressed in transfected cells; host or cells: Ba/F3 (mouse) transduced with pMSCV-Puro KRAS(G12R); lysate", "method": "For co-treatment with recombinant K-Ras(G12R), Ba/F3(G12R) cells were lysed with NP-40 buffer and adjusted to 1.5 mg/mL. A 0.1 μM solution of recombinant K-Ras(G12R) was prepared in NP-40 buffer. 18 μL of Ba/F3 lysate were added to 4 μL of a 0.5 mM solution of 3 containing 10% DMSO in NP-40 buffer or DMSO as control. 18 μL of recombinant K-Ras(G12R) solution or NP-40 was added and the mixtures were incubated for 16 h at 23° C. Subsequently samples were mixed with 5×SDS Loading Dye and heated at 95° C. for 5 min.\nUnless otherwise noted, SDS-PAGE was run with Novex 12% Bis-Tris gel (Invitrogen) in MES running buffer (Invitrogen) at 200 V for 60 min following the manufacturer's instructions. Protein bands were transferred onto 0.2-μm nitrocellulose membranes (Bio-Rad) using a wet-tank transfer apparatus (Bio-Rad Criterion Blotter) in 1×TOWBIN buffer with 10% methanol at 75V for 45 min. Membranes were blocked in 5% BSA-TBST for 1 h at 23° C. Primary antibody binding was performed with the indicated antibodies diluted in 5% BSA-TBST at 4° C. for at least 16 h. After washing the membrane three times with TBST (5 min each wash), secondary antibodies (goat anti-rabbit IgG-IRDye 800 and goat anti-mouse IgG-IRDye 680, Li-COR) were added as solutions in 5% skim milk-TBST at the dilutions recommended by the manufacturer. Secondary antibody binding was allowed to proceed for 1 h at 23° C. The membrane was washed three times with TBST (5 min each wash) and imaged on a Li-COR Odyssey fluorescence imager."}, "[4]": {"experiment": "Stability in aqueous buffers", "type": "physicochemical", "conditions": "over a range of pH"}}}
{"smiles": "CC(=O)C(O)(O)C(=O)N1[C@@H]2CC[C@H]1CN(c1nc(OCC34CCCN3CCC4)nc3c(F)c(-c4cccc5cccc(Cl)c45)ncc13)C2", "note": "[compound 3, 1-((1R,5S)-3-(7-(8-chloronaphthalen-1-yl)-8-fluoro-2-((tetrahydro-1H-pyrrolizin-7a(5H)-yl)methoxy)pyrido[4,3-d]pyrimidin-4-yl)-3,8-diazabicyclo[3.2.1]octan-8-yl)-2,2-dihydroxybutane-1,3-dione]", "values": [{"measurement": "covalent modification of K-Ras G12V", "setting": "K-Ras G12V", "value": "did not modify"}, {"measurement": "modification of K-Ras(G12R)·GppNHp", "setting": "K-Ras(G12R)·GppNHp", "value": "< 5", "unit": "%"}, {"measurement": "modification of surface exposed arginines of K-Ras", "setting": "K-Ras(G12R)·GDP [1]", "value": "not modified"}, {"measurement": "covalent adduct formation with recombinant K-Ras(G12R)·GDP", "setting": "K-Ras(G12R)·GDP [1]; 100 μM compound, pH 7.5, 23° C., adducts +656 Da and +638 Da", "value": "stoichiometric covalent adduct"}, {"measurement": "reaction rate with K-Ras(G12R)·GDP", "setting": "K-Ras(G12R)·GDP [1]; pH 6", "value": "greatly reduced rate"}, {"measurement": "reaction rate with K-Ras(G12R)·GDP", "setting": "K-Ras(G12R)·GDP [1]; pH 8", "value": "reached maximum"}, {"measurement": "reaction rate with K-Ras(G12R)·GDP", "setting": "K-Ras(G12R)·GDP [1]; pH 9", "value": "did not further increase"}, {"measurement": "reversibility of adduct formation", "setting": "K-Ras(G12R)·GDP [1]; purified adduct incubated at pH 7.5 for 7 days at 23° C.", "value": "irreversible"}, {"measurement": "covalent modification of K-Ras Q61K", "setting": "K-Ras Q61K", "value": "did not modify"}, {"measurement": "cellular activity", "setting": "[2]", "value": "did not show cellular activity"}, {"measurement": "increase of melting temperature of K-Ras(G12R)·GDP·3 adduct vs unmodified K-Ras(G12R)·GDP", "setting": "K-Ras(G12R)·GDP [3]", "value": 9.1, "unit": "°C"}, {"measurement": "modification of exogenous recombinant K-Ras(G12R)·GDP added to lysate", "setting": "K-Ras(G12R); after 16 h of incubation", "value": "complete modification"}, {"measurement": "modification of endogenous K-Ras(G12R) in BaF3/K-Ras(G12R) lysates", "setting": "K-Ras(G12R); lysate not pre-loaded with GDP", "value": "did not detect any modification"}, {"measurement": "modification of endogenous K-Ras(G12R) in BaF3/K-Ras(G12R) lysates", "setting": "K-Ras(G12R); lysates pre-loaded with excess GDP", "value": "covalent modification"}, {"measurement": "stability in aqueous buffers", "setting": "[4]", "value": "stable"}]}
